Where “and” joins values, the source holds several entries; their conditions need not be identical. Equal values may be shown once.
System: blood-brain barrier
Test: Histological examination of blood-brain barrier leakage of Evans blue dye after external heating
Type: in vivo, mice
Details: one line per animal
Description: Staining of the blood-brain barrier is a traditional method for evaluating blood-brain barrier leakage. Evans Blue dye, an exogenous tracer, is used to assess the integrity of the blood-brain barrier following a hyperthermic disruption. The dye molecules are able to easily diffuse through the fenestrated endothelial cells of all capillaries except those of the brain due to a functional blood-brain barrier. However, once the blood-brain barrier is compromised, Evans blue enters the brain and it fluoresces with excitation peaks at 470 and 540 nm and an emission peak at 680 nm. Histological staining techniques can therefore reflect the extent of blood-brain barrier leakage by studying the intensity of Evans blue dye in the brain.
Phase ii. The purpose of this part of the experiment was to examine the feasibility of hyperthermic disruption of the blood-brain barrier as well as its recovery period from thermal damage using Evans blue staining technique. Here, nine mice, each 6-8 weeks of age, were randomly divided into three identical groups. In contrast to the previous part, no holes were drilled into the exposed surface of the skull of these animals. In order to correlate temperature patterns with stains left from the Evans blue dye, the heating parameters for all groups were kept the same as was described in the first part of this experiment. […]

Diameter of BBB leakage of Evans blue (mm) (Group I Hyperthermic Disruption, 30 min heating near Bregma, sacrificed one hour after dye): 0 mm and 4.22 mm and 2.46 mm | Diameter of BBB leakage of Evans blue (mm) (Group II Recovery from Hyperthermia, dye injected 2 hours after 30 min thermal treatment): 0 mm and 0.62 mm and 1.98 mm
SMILES: Cc1cc(-c2ccc(/N=N/c3ccc4c(S(=O)(=O)O)cc(S(=O)(=O)O)c(N)c4c3O)c(C)c2)ccc1/N=N/c1ccc2c(S(=O)(=O)O)cc(S(=O)(=O)O)c(N)c2c1O [Evans blue]

Reference: patent US20150126964A1, “DRUG DELIVERY ACROSS THE BLOOD-BRAIN BARRIER USING MAGNETICALLY HEATABLE ENTITIES” (CORPORATION DE L'ECOLE POLYTECHNIQUE DE MONTREAL, priority 2012, published 2015)
